Tests used:
[1] = Inhibition of exonuclase 3
[2] = Inhibition of endonuclease 4
[3] = biological target: DNA repair nuclease/redox regulator APEX1 (Homo sapiens, UniProt P27695); test: Inhibition of purified human recombinant APE1 expressed in Escherichia coli M15 cells
[4] = biological target: Human immunodeficiency virus type 1 integrase (Human immunodeficiency virus 1, UniProt Q7ZJM1); test: Inhibition of HIV1 integrase
[5] = Selectivity index, IC50 for human recombinant APE1 over exonuclase 3

Chain of Human immunodeficiency virus type 1 integrase (Q7ZJM1 whole entry): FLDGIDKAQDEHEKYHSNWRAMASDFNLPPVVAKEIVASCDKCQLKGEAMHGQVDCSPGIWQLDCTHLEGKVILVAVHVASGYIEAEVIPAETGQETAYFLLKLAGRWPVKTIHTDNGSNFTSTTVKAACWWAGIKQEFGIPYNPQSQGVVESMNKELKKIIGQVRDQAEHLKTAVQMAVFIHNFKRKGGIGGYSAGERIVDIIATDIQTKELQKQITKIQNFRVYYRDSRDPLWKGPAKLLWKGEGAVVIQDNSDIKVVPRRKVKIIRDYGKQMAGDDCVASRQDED
Chain of DNA repair nuclease/redox regulator APEX1 (P27695 whole entry): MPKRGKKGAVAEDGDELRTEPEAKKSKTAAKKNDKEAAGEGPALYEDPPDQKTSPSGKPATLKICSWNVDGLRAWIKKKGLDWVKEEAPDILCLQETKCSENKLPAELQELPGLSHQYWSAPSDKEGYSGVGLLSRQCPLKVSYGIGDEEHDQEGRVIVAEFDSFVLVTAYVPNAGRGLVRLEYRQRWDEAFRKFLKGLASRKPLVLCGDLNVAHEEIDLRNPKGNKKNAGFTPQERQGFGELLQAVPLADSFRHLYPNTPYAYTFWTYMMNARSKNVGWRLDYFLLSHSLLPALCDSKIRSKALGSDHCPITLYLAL

Row | IC50 [3] [µM] | SMILES | other results
1 | 6 | Cc1oc(C)c(C(=O)O)c1COc1ccccc1C(=O)O | IC50 [1]: 98 µM; IC50 [2]: > 100 µM; IC50 [4]: > 100 µM; Ratio IC50 [5]: 16
2 | 4 | O=C(O)CCc1ccc(-c2ccc(Cl)cc2)n1CC(=O)O | IC50 [1]: > 100 µM; IC50 [2]: > 100 µM; IC50 [4]: > 100 µM; Ratio IC50 [5]: > 25
3 | > 100 | O=S(=O)(Nc1ccc(NS(=O)(=O)c2cccs2)cc1)c1cccs1 | –
4 | 80 | CCc1nnc(NS(=O)(=O)c2ccc(NC(=O)CCC(=O)O)cc2)s1 | –
5 | > 100 | Cc1ccc(S(=O)(=O)CCc2nnc(NC(=O)CC3CC4CCC3C4)s2)cc1 (configuration not stated) | –
6 | 35 | O=C(O)CCS(=O)(=O)c1cccc2c(S(=O)(=O)CCC(=O)O)cccc12 | –
7 | > 100 | O=C(Cn1cc(C(=O)c2ccco2)c2ccccc21)NCc1cccnc1 | –
8 | > 100 | COc1cc(S(=O)(=O)N(Cc2cccnc2)Cc2ccccc2Cl)ccc1-n1cnnn1 | –
9 | > 100 | CCCS(=O)(=O)N1CCCC(c2nc(-c3ccc(C(C)C)cc3)no2)C1 (configuration not stated) | –
10 | > 100 | Cc1nc(NC(=O)c2ccco2)sc1C(=O)O | –
11 | > 100 | O=S(=O)(c1ccccc1)N1CCCC(c2nc(-c3ccc(F)cc3)no2)C1 (configuration not stated) | –
12 | > 100 | O=C(O)CSc1nnc(-c2ccc(S(=O)(=O)N3CCOCC3)cc2)n1Cc1ccco1 | –
13 | > 100 | CCN1/C(=C2/SC(=S)N(NC(C)=O)C2=O)Sc2ccc(S(=O)(=O)C(F)(F)F)cc21 | –
14 | > 100 | COc1cc(S(=O)(=O)NC2CCCCC2C)ccc1-n1cnnn1 (configuration not stated) | –
15 | > 100 | CCN(Cc1ccccc1)S(=O)(=O)c1ccc(S(=O)(=O)NC2CCC(C)CC2)cc1 (configuration not stated) | –
16 | 15 | Cc1ccc2c(c1)c1nnc(SCc3ccc(CC(=O)O)cc3)nc1n2C(=O)O | –
17 | > 100 | COc1cc(S(=O)(=O)N(Cc2ccc(Br)cc2)Cc2ccco2)ccc1-n1cnnn1 | –
18 | > 100 | CCCNS(=O)(=O)c1ccc(OCC(=O)NCC2CCCO2)c(C)c1 (configuration not stated) | –
19 | > 100 | Cc1ccc(Cn2nnc3c(O)nc(C4CCCN(S(=O)(=O)c5ccccc5)C4)nc32)cc1 (configuration not stated) | –
20 | > 100 | Cc1ccc(S(=O)(=O)CCc2nnc(NC(=O)CCc3ccccc3)s2)cc1 | –
21 | 6 | O=C(O)CN1C(=O)/C(=C\c2ccc(-c3cccc(C(=O)O)c3)o2)SC1=S | IC50 [1]: 70 µM; IC50 [2]: > 100 µM; IC50 [4]: > 100 µM; Ratio IC50 [5]: 12
22 | > 100 | Cc1c(OS(=O)(=O)c2ccccc2)cccc1OS(=O)(=O)c1ccccc1 | –
23 | > 100 | CCOc1cc(S(=O)(=O)NCc2ccc3c(c2)OCO3)c(OCC)cc1-n1cnnn1 | –
24 | > 100 | C=CCn1c(Cc2ccccc2)nnc1SCC(=O)Nc1nnc(C)s1 | –
25 | > 100 | Cc1cc(S(=O)(=O)NC2CCCC2)ccc1-n1cnnn1 | –
26 | > 100 | C=CCSc1nnc(-c2ccc(NS(C)(=O)=O)cc2)n1C | –
27 | > 100 | CC(C)(C)NS(=O)(=O)c1ccc2oc3ccc(S(=O)(=O)NC(C)(C)C)cc3c2c1 | –
28 | 100 | CCN(CC)S(=O)(=O)c1cccc(C(=O)Nc2ccccc2C(=O)O)c1 | –
29 | > 100 | CS(=O)(=O)Nc1nc(CC(=O)O)cs1 | –
30 | > 100 | Cc1ccc(-c2noc(CNC(=O)CN(C)S(=O)(=O)c3ccc4ccccc4c3)n2)cc1 | –

Second part, the compound before the results:

Row | SMILES | IC50 [3] [µM] | other results
31 | O=C(O)Cc1cc(S(=O)(=O)c2ccc(Sc3ccc(C(=O)O)cc3)cc2)ccc1C(=O)O | 4 | IC50 [1]: 90 µM; IC50 [2]: > 100 µM; IC50 [4]: > 100 µM; Ratio IC50 [5]: 23
32 | O=C(O)CNS(=O)(=O)c1ccc2c(c1)C(=O)c1cc(S(=O)(=O)NCC(=O)O)ccc1-2 | 50 | –
33 | O=S(=O)(NCc1ccccc1)c1ccc(S(=O)(=O)N(Cc2ccc(Cl)cc2)Cc2ccco2)cc1 | > 100 | –
34 | CC1(C)C(C(=O)O)N2C(=O)C(NC(=O)C(C(=O)O)c3ccccc3)C2[S+]1[O-] (configuration not stated) | > 100 | –
35 | CCOC(=O)C(CCc1nn[nH]n1)(CCc1nn[nH]n1)C(=O)OCC | > 100 | –
36 | CC(Oc1cc(OC(C)C(=O)O)c2c(c1)oc(=O)c1ccccc12)C(=O)O (configuration not stated) | 8 | –
37 | COC(=O)C1C(=O)c2c([nH]c(C(=O)OCC3CCCO3)c2C)CC1C (configuration not stated) | > 100 | –
38 | Cc1cc(C(=O)O)c(CSCc2cc(C(=O)O)oc2C)o1 | 20 | –
39 | Cc1oc(C(=O)O)cc1CSCC(C)C(=O)O (configuration not stated) | 22 | –
40 | O=C(O)CSC1CCS(=O)(=O)C1 (configuration not stated) | > 100 | –
41 | Cc1nc(N(CCC(=O)O)CCC(=O)O)sc1C(C)(C)C | 60 | –
42 | O=C(O)Cn1c(CCCCc2nc3ccccc3n2CC(=O)O)nc2ccccc21 | 4 | IC50 [1]: 80 µM; IC50 [2]: > 100 µM; IC50 [4]: > 100 µM; Ratio IC50 [5]: 20
43 | CC1([N+](=O)[O-])CN(CCC(=O)O)CN(CCC(=O)O)C1 | 50 | –
44 | CCOC(=O)c1cnc(SC(C)C(=O)O)nc1N (configuration not stated) | > 100 | –
45 | Cc1cc(C(=O)O)c(CSCc2cc(C(=O)O)c(C)o2)o1 | > 100 | –
46 | O=C(O)c1ccc(Oc2ccc(S(=O)(=O)c3ccc(C(=O)O)c(C(=O)O)c3)cc2)cc1 | 10 | –
47 | Nc1ncnc2[nH]c(SCCC(=O)O)nc12 | 20 | –
48 | O=C(O)CNC1CS(=O)(=O)CC1O (configuration not stated) | > 100 | –
49 | O=C(O)CCNc1ccc(Br)cc1C(=O)O | 32 | –
50 | O=C(O)c1oc2ccccc2c1CSc1ccccn1 | 27 | –
51 | CCS(=O)(=O)Nc1cc2c(cc1C)C(S(=O)(=O)CC)C1=C2CCC1 (configuration not stated) | > 100 | –
52 | O=C(O)CCCN1C(=O)/C(=C2/C(=O)N(CC(=O)O)c3ccccc32)SC1=S | 12 | –
53 | O=S(=O)(O)c1cc(O)c2c(S(=O)(=O)O)cc(S(=O)(=O)O)cc2c1 | > 100 | –
54 | O=C(O)c1ccccc1C(=O)NCc1ccc(CNC(=O)c2ccccc2C(=O)O)cc1 | 30 | –
55 | O=C(O)CCn1c(=O)[nH]c(=O)n(CCC(=O)O)c1=O | 33 | –
56 | COc1ccc(S(=O)(=O)N2CCC(C(=O)O)CC2)cc1C(=O)O | 30 | –
57 | O=C(O)CCN1C(=O)/C(=C2/C(=O)N(CC(=O)O)c3ccccc32)SC1=S | 6 | IC50 [1]: 60 µM; IC50 [2]: > 100 µM; IC50 [4]: > 100 µM; Ratio IC50 [5]: 10
58 | CCN(c1ccc(C(O)(C(=O)OC)C(F)(F)F)cc1)S(=O)(=O)c1ccc(C)cc1 (configuration not stated) | > 100 | –

From ChEMBL document CHEMBL1139343, “Pharmacophore guided discovery of small-molecule human apurinic/apyrimidinic endonuclease 1 inhibitors” (J Med Chem, 2009)
